We go through 60 compounds from ChEMBL document CHEMBL5104090, “Recent advances in the medicinal chemistry of carbonic anhydrase inhibitors” (Eur J Med Chem, 2021).

The structures appear in SMILES notation.

Assay [1] deals with T1, Carbonic anhydrase 1 (Homo sapiens, UniProt P00915).
The target of assay [2] is T2, Carbonic anhydrase 2 (Homo sapiens, UniProt P00918).
The target in assay [3] is T3, Carbonic anhydrase 9 (Homo sapiens, UniProt Q16790).
For assay [4], the target named is T4, Carbonic anhydrase 12 (Homo sapiens, UniProt O43570).
T4 sequence (O43570 whole entry): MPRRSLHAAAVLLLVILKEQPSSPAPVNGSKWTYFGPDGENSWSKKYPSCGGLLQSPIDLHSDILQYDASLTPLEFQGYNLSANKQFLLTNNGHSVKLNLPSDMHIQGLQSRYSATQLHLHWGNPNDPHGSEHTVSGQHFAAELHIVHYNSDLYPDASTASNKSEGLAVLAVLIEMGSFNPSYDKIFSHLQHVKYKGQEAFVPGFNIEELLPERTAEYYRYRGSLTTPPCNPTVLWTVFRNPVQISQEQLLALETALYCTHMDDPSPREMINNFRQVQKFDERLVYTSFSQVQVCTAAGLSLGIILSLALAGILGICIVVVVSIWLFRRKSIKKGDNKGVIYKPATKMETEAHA
For assay [5], the target named is T5, Carbonic anhydrase 4 (Homo sapiens, UniProt P22748).
T5 sequence (P22748 whole entry): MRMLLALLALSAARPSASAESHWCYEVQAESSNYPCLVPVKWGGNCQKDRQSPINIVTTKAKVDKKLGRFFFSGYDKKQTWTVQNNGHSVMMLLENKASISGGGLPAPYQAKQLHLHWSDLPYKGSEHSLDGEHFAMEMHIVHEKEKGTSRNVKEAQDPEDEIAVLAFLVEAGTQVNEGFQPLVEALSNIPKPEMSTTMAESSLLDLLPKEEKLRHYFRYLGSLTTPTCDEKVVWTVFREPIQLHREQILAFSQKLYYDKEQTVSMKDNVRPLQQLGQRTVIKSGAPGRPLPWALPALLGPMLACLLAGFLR
Assay [6] addresses T3, Carbonic anhydrase 9. This is another data set of the same source.
For assay [7], the target named is T4, Carbonic anhydrase 12. This is another data set of the same source.
Assay [8] deals with T1, Carbonic anhydrase 1. This is another data set of the same source.
Assay [9] addresses T2, Carbonic anhydrase 2. This is another data set of the same source.
Assay [10] addresses T5, Carbonic anhydrase 4. The source holds these as a separate data set.
Assay [11] concerns the target T3, Carbonic anhydrase 9. The source holds these as a separate data set.
In assay [12] the target is T1, Carbonic anhydrase 1. The source holds these as a separate data set.
Assay [13] deals with T2, Carbonic anhydrase 2. The source holds these as a separate data set.

T1 sequence (P00915 whole entry): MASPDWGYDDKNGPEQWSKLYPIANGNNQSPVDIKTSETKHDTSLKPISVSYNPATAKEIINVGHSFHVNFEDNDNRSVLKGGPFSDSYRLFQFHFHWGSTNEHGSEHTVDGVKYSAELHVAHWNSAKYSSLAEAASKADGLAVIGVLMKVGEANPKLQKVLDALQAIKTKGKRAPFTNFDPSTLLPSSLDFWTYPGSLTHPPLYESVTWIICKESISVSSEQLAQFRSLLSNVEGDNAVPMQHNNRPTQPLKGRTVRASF

As for `NS(=O)(=O)c1ccc2[nH]c(-c3ccccn3)nc2c1`, the IC50 against Carbonic anhydrase 1 [1], against Carbonic anhydrase 2 [2], on Carbonic anhydrase 9 [3] and at Carbonic anhydrase 12 [4] was greater than 360 nM throughout.
With `Cn1c(-c2ccccc2)nc2cc(C(N)=O)ccc21`, the 50% inhibitory concentration (IC50) on Carbonic anhydrase 1 [1], on Carbonic anhydrase 2 [2], on Carbonic anhydrase 9 [3] and on Carbonic anhydrase 12 [4] was greater than 360 nM in each case.
In turn, `NS(=O)(=O)c1cccc(N/C=C/C(=O)c2ccc3ccccc3c2)c1` registered a Ki at Carbonic anhydrase 4 [5] of 6.5 nM.
`Cn1c(-c2ccccc2)nc2cc(C(=O)O)ccc21`: the IC50 against Carbonic anhydrase 1 [1], against Carbonic anhydrase 2 [2], on Carbonic anhydrase 9 [3] and against Carbonic anhydrase 12 [4] was greater than 360 nM throughout.
As to `NS(=O)(=O)c1ccc(CCn2c(SCc3ccccc3)nc3ccccc3c2=O)cc1`, the Ki at Carbonic anhydrase 9 [6] came to 19.3 nM; at Carbonic anhydrase 12 [7], 17.2 nM.
Regarding `O=C1c2ccccc2C(=O)N1CCCSc1nc2ccccc2c(=O)n1CCc1ccccc1`, the Ki was determined as 19.3 nM at Carbonic anhydrase 9 [6] and 17.2 nM on Carbonic anhydrase 12 [7].
On to `NS(=O)(=O)c1cccc(N/C=C/C(=O)c2ccccc2)c1`, for which affinity on Carbonic anhydrase 4 [5] was put at a Ki of 6.5 nM.
`CCSc1nc2ccccc2c(=O)n1CCc1ccc(S(N)(=O)=O)cc1`: the Ki on Carbonic anhydrase 9 [6] and at Carbonic anhydrase 12 [7] was 57.8 nM in each case.
As to `COC(=O)c1ccc2c(c1)C(=O)N(CCc1ccccc1)C2=O`, the Ki at Carbonic anhydrase 1 [8], at Carbonic anhydrase 2 [9], on Carbonic anhydrase 4 [10] and at Carbonic anhydrase 9 [11] was greater than 10000 nM throughout.
Take `Cc1ccc(C(=O)/C=C/Nc2cccc(S(N)(=O)=O)c2)cc1`: the Ki at Carbonic anhydrase 4 [5] turned out to be 6.5 nM.
With `NS(=O)(=O)c1ccc2[nH]c(-c3ccc(Cl)cc3)nc2c1`, the IC50 at Carbonic anhydrase 1 [1], on Carbonic anhydrase 2 [2], on Carbonic anhydrase 9 [3] and on Carbonic anhydrase 12 [4] was greater than 360 nM each time.
Compound `NS(=O)(=O)c1cccc(N/C=C/C(=O)c2ccc([N+](=O)[O-])cc2)c1` returned a Ki at Carbonic anhydrase 4 [5] of 6.5 nM.
With `O=C(O)c1ccc2c(c1)C(=O)N(Cc1ccccc1)C2=O`, the Ki at Carbonic anhydrase 1 [8], on Carbonic anhydrase 2 [9], on Carbonic anhydrase 4 [10] and at Carbonic anhydrase 9 [11] was greater than 10000 nM throughout.
As to `NS(=O)(=O)c1ccc(C(=O)N/N=C/c2ccc(O)cc2)cc1`, the inhibitory constant (Ki) on Carbonic anhydrase 9 [6] worked out at 8.5 nM; at Carbonic anhydrase 12 [7] it was 8.6 nM.
With `O=S1(=O)CC=Cc2cccc(-c3ccc(F)cc3)c2O1`, the inhibitory constant (Ki) at Carbonic anhydrase 1 [12] and at Carbonic anhydrase 2 [13] was greater than 100000 nM in each case.
Regarding `O=S1(=O)CC=Cc2cccc(-c3ccccc3)c2O1`, the Ki at Carbonic anhydrase 1 [12] and on Carbonic anhydrase 2 [13] was greater than 100000 nM in each case.
As for `COC(=O)c1ccc2c(c1)C(=O)N(CCc1ccc(S(N)(=O)=O)cc1)C2=O`, the Ki on Carbonic anhydrase 1 [8] worked out at 54.1 nM; at Carbonic anhydrase 2 [9], 25.9 nM; on Carbonic anhydrase 4 [10], 317 nM; at Carbonic anhydrase 9 [11], 54.1 nM.
As for `CCOC(=O)c1ccc(N2C(=O)c3ccc(C(=O)O)cc3C2=O)cc1`, the Ki on Carbonic anhydrase 1 [8], at Carbonic anhydrase 2 [9], at Carbonic anhydrase 4 [10] and at Carbonic anhydrase 9 [11] was greater than 10000 nM throughout.
For `NS(=O)(=O)c1cccc(N/C=C/C(=O)c2ccc(Cl)cc2)c1`, on Carbonic anhydrase 4 [5], affinity was put at a Ki of 6.5 nM.
Consider `NS(=O)(=O)c1ccc(N/C=C/C(=O)c2ccc(Cl)cc2)cc1`, for which the Ki at Carbonic anhydrase 9 [6] turned out to be 0.21 nM; on Carbonic anhydrase 4 [5], 6.5 nM.
Turning to `NS(=O)(=O)c1ccc(CN2C(=O)c3ccc(C(=O)O)cc3C2=O)cc1`, the Ki on Carbonic anhydrase 1 [8] is 54.1 nM; at Carbonic anhydrase 2 [9], 25.9 nM; at Carbonic anhydrase 4 [10], 317 nM; on Carbonic anhydrase 9 [11], 54.1 nM.
In the case of `CCN(CC)c1ccc(/C=N/NC(=O)c2ccc(S(N)(=O)=O)cc2)c(O)c1`, the inhibition constant (Ki) came to 15.8 nM at Carbonic anhydrase 9 [6] and 8.6 nM on Carbonic anhydrase 12 [7].
In the same order, the values of `CSc1nc2ccccc2c(=O)n1CCc1ccc(S(N)(=O)=O)cc1` are 57.8 nM and 57.8 nM.
Turning to `COc1ccc(-c2cccc3c2OS(=O)(=O)CC=C3)cc1`, the Ki at Carbonic anhydrase 1 [12] and at Carbonic anhydrase 2 [13] was greater than 100000 nM each time.
With `COC(=O)c1ccc2c(c1)C(=O)N(c1ccc(S(N)(=O)=O)cc1)C2=O`, the Ki at Carbonic anhydrase 1 [8] was 54.1 nM; at Carbonic anhydrase 2 [9], 25.9 nM; on Carbonic anhydrase 4 [10], 317 nM; at Carbonic anhydrase 9 [11], 46 nM.
For the compound `O=S1(=O)CC=Cc2ccc(-c3ccc(F)cc3)cc2O1`, the Ki at Carbonic anhydrase 1 [12] and on Carbonic anhydrase 2 [13] was greater than 100000 nM each time.
Regarding `N#Cc1ccc(CSc2nc3ccccc3c(=O)n2CCc2ccc(S(N)(=O)=O)cc2)cc1`, the inhibitory constant (Ki) amounted to 19.3 nM on Carbonic anhydrase 9 [6] and 17.2 nM on Carbonic anhydrase 12 [7].
The matching figures for `N#CCSc1nc2ccccc2c(=O)n1CCc1ccc(S(N)(=O)=O)cc1`: 57.8 nM and 57.8 nM.
With `COc1ccc(-c2ccc3c(c2)OS(=O)(=O)CC=C3)cc1`, the Ki at Carbonic anhydrase 1 [12] and at Carbonic anhydrase 2 [13] was greater than 100000 nM throughout.
For `COC(=O)c1ccc2c(c1)C(=O)N(Cc1ccc(S(N)(=O)=O)cc1)C2=O`, the Ki at Carbonic anhydrase 1 [8] was 54.1 nM; at Carbonic anhydrase 2 [9], 25.9 nM; at Carbonic anhydrase 4 [10] it was 317 nM; at Carbonic anhydrase 9 [11], 54.1 nM.
Take `O=C(O)c1ccc2c(c1)C(=O)N(c1ccccc1)C2=O`: the Ki at Carbonic anhydrase 1 [8], on Carbonic anhydrase 2 [9], on Carbonic anhydrase 4 [10] and at Carbonic anhydrase 9 [11] was greater than 10000 nM throughout.
Consider `CCOC(=O)c1ccc(N2C(=O)c3ccc(C(=O)OC)cc3C2=O)cc1`, for which the Ki at Carbonic anhydrase 1 [8], at Carbonic anhydrase 2 [9], on Carbonic anhydrase 4 [10] and on Carbonic anhydrase 9 [11] was greater than 10000 nM throughout.
`NS(=O)(=O)c1cccc(N/C=C/C(=O)c2cccs2)c1` had an inhibitory constant (Ki) on Carbonic anhydrase 4 [5] of 8.7 nM.
Consider `NS(=O)(=O)c1ccc(N/C=C/C(=O)c2cccs2)cc1`, for which the Ki at Carbonic anhydrase 9 [6] was found to be 0.21 nM; at Carbonic anhydrase 4 [5], 6.5 nM.
Consider `NS(=O)(=O)c1ccc(CCN2C(=O)c3ccc(C(=O)O)cc3C2=O)cc1`, for which the Ki at Carbonic anhydrase 1 [8] was determined as 54.1 nM; at Carbonic anhydrase 2 [9], 25.9 nM; at Carbonic anhydrase 4 [10], 317 nM; at Carbonic anhydrase 9 [11], 54.1 nM.
Regarding `O=S1(=O)CC=Cc2cc(-c3ccccc3)ccc2O1`, the Ki on Carbonic anhydrase 1 [12] and at Carbonic anhydrase 2 [13] was greater than 100000 nM each time.
In the case of `O=C(O)c1ccc2c(c1)C(=O)N(CCc1ccccc1)C2=O`, the inhibition constant (Ki) at Carbonic anhydrase 1 [8], at Carbonic anhydrase 2 [9], on Carbonic anhydrase 4 [10] and at Carbonic anhydrase 9 [11] was greater than 10000 nM in each case.
Regarding `NS(=O)(=O)c1ccc(CCn2c(SCc3ccc(Cl)cc3)nc3ccccc3c2=O)cc1`, the Ki at Carbonic anhydrase 9 [6] was 19.3 nM; at Carbonic anhydrase 12 [7] it was 17.2 nM.
With `COc1ccc(C(=O)/C=C/Nc2ccc(S(N)(=O)=O)cc2)cc1`, the inhibitory constant (Ki) on Carbonic anhydrase 9 [6] is 0.21 nM; at Carbonic anhydrase 4 [5], 6.5 nM.
`O=C(O)c1ccc(N2C(=O)c3ccc(C(=O)O)cc3C2=O)cc1`: the Ki at Carbonic anhydrase 1 [8], on Carbonic anhydrase 2 [9], on Carbonic anhydrase 4 [10] and at Carbonic anhydrase 9 [11] was greater than 10000 nM throughout.
With `NS(=O)(=O)c1ccc(CCn2c(SCc3ccc(Br)cc3)nc3ccccc3c2=O)cc1`, the Ki is 19.3 nM at Carbonic anhydrase 9 [6] and 17.2 nM on Carbonic anhydrase 12 [7].
Take `COC(=O)c1ccc2c(c1)C(=O)N(Cc1ccccc1)C2=O`: the Ki at Carbonic anhydrase 1 [8], at Carbonic anhydrase 2 [9], at Carbonic anhydrase 4 [10] and on Carbonic anhydrase 9 [11] was greater than 10000 nM each time.
On to `NS(=O)(=O)c1ccc(C(=O)N/N=C/c2ccccc2O)cc1`, for which the Ki stood at 8.5 nM at Carbonic anhydrase 9 [6] and 8.6 nM on Carbonic anhydrase 12 [7].
`Cc1ncc([N+](=O)[O-])n1CCS(N)(=O)=O` yielded an IC50 against Carbonic anhydrase 9 [3] of 643 nM.
On to `NS(=O)(=O)c1ccc(C(=O)N/N=C/c2cccc(O)c2)cc1`, for which the Ki at Carbonic anhydrase 9 [6] is 8.5 nM; at Carbonic anhydrase 12 [7] it was 8.6 nM.
As to `COC(=O)c1ccc2c(c1)C(=O)N(c1ccccc1)C2=O`, the Ki at Carbonic anhydrase 1 [8], at Carbonic anhydrase 2 [9], on Carbonic anhydrase 4 [10] and on Carbonic anhydrase 9 [11] was greater than 10000 nM throughout.
As to `O=S1(=O)CC=Cc2cc(I)ccc2O1`, the Ki on Carbonic anhydrase 1 [12] and at Carbonic anhydrase 2 [13] was greater than 100000 nM in each case.
Take `NS(=O)(=O)c1ccc(N/C=C/C(=O)c2ccco2)cc1`: the figures for the Ki on Carbonic anhydrase 9 [6] and at Carbonic anhydrase 4 [5] were 0.21 nM and 6.5 nM, respectively.
`NS(=O)(=O)c1cccc(N/C=C/C(=O)c2ccc(Br)cc2)c1` registered a Ki on Carbonic anhydrase 4 [5] of 6.5 nM.
`COC(=O)c1ccc2c(c1)C(=O)N(c1ccc(C(=O)O)cc1)C2=O`: the Ki at Carbonic anhydrase 1 [8], on Carbonic anhydrase 2 [9], at Carbonic anhydrase 4 [10] and on Carbonic anhydrase 9 [11] was greater than 10000 nM throughout.
In turn, `NS(=O)(=O)c1ccc(CCn2c(SCc3ccc([N+](=O)[O-])cc3)nc3ccccc3c2=O)cc1` yielded a Ki at Carbonic anhydrase 12 [7] of 17.2 nM.
Turning to `COc1cc(/C=N/NC(=O)c2ccc(S(N)(=O)=O)cc2)ccc1O`, the values for the Ki at Carbonic anhydrase 9 [6] and on Carbonic anhydrase 12 [7] were 8.5 nM and 9.7 nM, respectively.
For `COc1ccc(-c2ccc3c(c2)C=CCS(=O)(=O)O3)cc1`, the Ki at Carbonic anhydrase 1 [12] and at Carbonic anhydrase 2 [13] was greater than 100000 nM in each case.
For the compound `O=S1(=O)CC=Cc2cccc(Br)c2O1`, the Ki on Carbonic anhydrase 1 [12] and at Carbonic anhydrase 2 [13] was greater than 100000 nM throughout.
For the compound `COc1ccc(C(=O)/C=C/Nc2cccc(S(N)(=O)=O)c2)cc1`, on Carbonic anhydrase 4 [5], the Ki was 6.5 nM.
In the case of `Cc1ccc(CSc2nc3ccccc3c(=O)n2CCc2ccc(S(N)(=O)=O)cc2)cc1`, the Ki at Carbonic anhydrase 9 [6] came to 19.3 nM; at Carbonic anhydrase 12 [7], 17.2 nM.
`NS(=O)(=O)c1cccc(N/C=C/C(=O)c2ccco2)c1` registered a Ki on Carbonic anhydrase 4 [5] of 64.5 nM.
In the case of `CCOC(=O)c1ccc(-c2cccc3c2OS(=O)(=O)CC=C3)cc1`, the Ki on Carbonic anhydrase 1 [12] and on Carbonic anhydrase 2 [13] was greater than 100000 nM in each case.
Consider `CCOC(=O)c1ccc(-c2ccc3c(c2)C=CCS(=O)(=O)O3)cc1`, for which the Ki at Carbonic anhydrase 1 [12] and at Carbonic anhydrase 2 [13] was greater than 100000 nM throughout.
With `NS(=O)(=O)c1ccc(N2C(=O)c3ccc(C(=O)O)cc3C2=O)cc1`, the Ki stood at 54.1 nM at Carbonic anhydrase 1 [8], 25.9 nM on Carbonic anhydrase 2 [9], 317 nM on Carbonic anhydrase 4 [10] and 54.1 nM on Carbonic anhydrase 9 [11].

Usually IC50 stands for the point on the concentration scale where inhibition reaches its midpoint. The term Ki denotes a dissociation constant, usually derived from enzyme kinetics or from competition with a known ligand. The low end stands for a stronger hold on the target, the high end for a looser hold on the target.
